Active and inactive are the calls of the source. The calls are words filed in the database; no cut-off is given here.
Experiments:
[1] = tested on: BV-2; experiment: Antiinflammatory activity against mouse BV2 cells assessed as inhibition of LPS-induced TNFalpha production at 1 uM by enzyme immunoassay; type: functional
[2] = tested on: BV-2; experiment: Antiinflammatory activity against mouse BV2 cells assessed as reduction in LPS-induced IL6 production at 1 uM by enzyme immunoassay; type: functional, cell-based
[3] = tested on: BV-2; experiment: Antiinflammatory activity against mouse BV2 cells assessed as decrease in LPS-induced NO production at 1 to 5 uM pretreated with compound followed by LPS stimulation incubated for 4 to 48 hrs by enzyme immunoassay; type: functional, cell-based; details: dose 1-5 µM, time 4-48 hrs
[4] = tested on: RPMI-8226; experiment: Growth inhibition of human RPMI8226 cells at 10 uM incubated for 48 hrs by sulforhodamine B assay relative to control; type: functional; details: read-out: GI
[5] = tested on: NCI-H226; experiment: Growth inhibition of human NCI-H226 cells at 10 uM incubated for 48 hrs by sulforhodamine B assay relative to control; type: functional; details: read-out: GI
[6] = tested on: NCI-H460; experiment: Growth inhibition of human NCI-H460 cells at 10 uM incubated for 48 hrs by sulforhodamine B assay relative to control; type: functional; details: read-out: GI
[7] = tested on: HCT-116; experiment: Growth inhibition of human HCT-116 cells at 10 uM incubated for 48 hrs by sulforhodamine B assay relative to control; type: functional; details: read-out: GI
[8] = tested on: SW-620; experiment: Growth inhibition of human SW-620 cells at 10 uM incubated for 48 hrs by sulforhodamine B assay relative to control; type: functional; details: read-out: GI
[9] = tested on: UACC-257; experiment: Growth inhibition of human UACC-257 cells at 10 uM incubated for 48 hrs by sulforhodamine B assay relative to control; type: functional; details: read-out: GI
[10] = tested on: UACC-62; experiment: Growth inhibition of human UACC-62 cells at 10 uM incubated for 48 hrs by sulforhodamine B assay relative to control; type: functional; details: read-out: GI
[11] = tested on: IGROV-1; experiment: Growth inhibition of human IGROV-1 cells at 10 uM incubated for 48 hrs by sulforhodamine B assay relative to control; type: functional; details: read-out: GI
[12] = tested on: OVCAR-3; experiment: Growth inhibition of human OVCAR-3 cells at 10 uM incubated for 48 hrs by sulforhodamine B assay relative to control; type: functional; details: read-out: GI
[13] = tested on: OVCAR-4; experiment: Growth inhibition of human OVCAR-4 cells at 10 uM incubated for 48 hrs by sulforhodamine B assay relative to control; type: functional; details: read-out: GI
[14] = tested on: OVCAR-5; experiment: Growth inhibition of human OVCAR-5 cells at 10 uM incubated for 48 hrs by sulforhodamine B assay relative to control; type: functional; details: read-out: GI
[15] = tested on: CAKI-1; experiment: Growth inhibition of human CAKI-1 cells at 10 uM incubated for 48 hrs by sulforhodamine B assay relative to control; type: functional; details: read-out: GI
[16] = tested on: TK-10; experiment: Growth inhibition of human TK-10 cells at 10 uM incubated for 48 hrs by sulforhodamine B assay relative to control; type: functional; details: read-out: GI
[17] = tested on: MCF7; experiment: Growth inhibition of human MCF7 cells at 10 uM incubated for 48 hrs by sulforhodamine B assay relative to control; type: functional; details: read-out: GI
[18] = tested on: T47D; experiment: Growth inhibition of human T47D cells at 10 uM incubated for 48 hrs by sulforhodamine B assay relative to control; type: functional; details: read-out: GI
[19] = tested on: MDA-MB-468; experiment: Growth inhibition of human MDA-MB-468 cells at 10 uM incubated for 48 hrs by sulforhodamine B assay relative to control; type: functional; details: read-out: GI
[20] = tested on: MDA-MB-231; experiment: Growth inhibition of human MDA-MB-231 cells at 10 uM incubated for 48 hrs by sulforhodamine B assay relative to control; type: functional; details: read-out: GI
[21] = tested on: K562; experiment: Growth inhibition of human K562 cells at 10 uM incubated for 48 hrs by sulforhodamine B assay relative to control; type: functional; details: read-out: GI
[22] = tested on: SR; experiment: Growth inhibition of human SR cells at 10 uM incubated for 48 hrs by sulforhodamine B assay relative to control; type: functional; details: read-out: GI
[23] = tested on: HOP-62; experiment: Growth inhibition of human HOP-62 cells at 10 uM incubated for 48 hrs by sulforhodamine B assay relative to control; type: functional; details: read-out: GI
[24] = tested on: HOP-92; experiment: Growth inhibition of human HOP-92 cells at 10 uM incubated for 48 hrs by sulforhodamine B assay relative to control; type: functional; details: read-out: GI
[25] = tested on: SF-295; experiment: Growth inhibition of human SF-295 cells at 10 uM incubated for 48 hrs by sulforhodamine B assay relative to control; type: functional; details: read-out: GI
[26] = tested on: U-251; experiment: Growth inhibition of human U-251 cells at 10 uM incubated for 48 hrs by sulforhodamine B assay relative to control; type: functional; details: read-out: GI
[27] = tested on: SK-MEL-2; experiment: Growth inhibition of human SK-MEL-2 cells at 10 uM incubated for 48 hrs by sulforhodamine B assay relative to control; type: functional; details: read-out: GI
[28] = tested on: UO-31; experiment: Growth inhibition of human UO-31 cells at 10 uM incubated for 48 hrs by sulforhodamine B assay relative to control; type: functional; details: read-out: GI
[29] = tested on: RPMI-8226; experiment: Growth inhibition of human RPMI-8226 cells incubated for 48 hrs by sulforhodamine B assay; type: functional; details: dose 10 µM
[30] = tested on: NCI-H226; experiment: Growth inhibition of human NCI-H226 cells incubated for 48 hrs by sulforhodamine B assay; type: functional
[31] = tested on: NCI-H460; experiment: Growth inhibition of human NCI-H460 cells incubated for 48 hrs by sulforhodamine B assay; type: functional
[32] = tested on: HCT-116; experiment: Growth inhibition of human HCT-116 cells incubated for 48 hrs by sulforhodamine B assay; type: functional
[33] = tested on: SW-620; experiment: Growth inhibition of human SW-620 cells incubated for 48 hrs by sulforhodamine B assay; type: functional
[34] = tested on: UACC-257; experiment: Growth inhibition of human UACC-257 cells incubated for 48 hrs by sulforhodamine B assay; type: functional
[35] = tested on: UACC-62; experiment: Growth inhibition of human UACC-62 cells incubated for 48 hrs by sulforhodamine B assay; type: functional
[36] = tested on: IGROV-1; experiment: Growth inhibition of human IGROV-1 cells incubated for 48 hrs by sulforhodamine B assay; type: functional
[37] = tested on: OVCAR-3; experiment: Growth inhibition of human OVCAR-3 cells incubated for 48 hrs by sulforhodamine B assay; type: functional
[38] = tested on: OVCAR-4; experiment: Growth inhibition of human OVCAR-4 cells incubated for 48 hrs by sulforhodamine B assay; type: functional
[39] = tested on: OVCAR-5; experiment: Growth inhibition of human OVCAR-5 cells incubated for 48 hrs by sulforhodamine B assay; type: functional
[40] = tested on: CAKI-1; experiment: Growth inhibition of human CAKI-1 cells incubated for 48 hrs by sulforhodamine B assay; type: functional
[41] = tested on: TK-10; experiment: Growth inhibition of human TK-10 cells incubated for 48 hrs by sulforhodamine B assay; type: functional
[42] = tested on: MCF7; experiment: Growth inhibition of human MCF7 cells incubated for 48 hrs by sulforhodamine B assay; type: functional
[43] = tested on: T47D; experiment: Growth inhibition of human T47D cells incubated for 48 hrs by sulforhodamine B assay; type: functional
[44] = tested on: MDA-MB-468; experiment: Growth inhibition of human MDA-MB-468 cells incubated for 48 hrs by sulforhodamine B assay; type: functional
[45] = tested on: MDA-MB-231; experiment: Growth inhibition of human MDA-MB-231 cells incubated for 48 hrs by sulforhodamine B assay; type: functional
[46] = tested on: K562; experiment: Growth inhibition of human K562 cells incubated for 48 hrs by sulforhodamine B assay; type: functional
[47] = tested on: SR; experiment: Growth inhibition of human SR cells incubated for 48 hrs by sulforhodamine B assay; type: functional
[48] = tested on: HOP-62; experiment: Growth inhibition of human HOP-62 cells incubated for 48 hrs by sulforhodamine B assay; type: functional
[49] = tested on: HOP-92; experiment: Growth inhibition of human HOP-92 cells incubated for 48 hrs by sulforhodamine B assay; type: functional
[50] = tested on: SF-295; experiment: Growth inhibition of human SF-295 cells incubated for 48 hrs by sulforhodamine B assay; type: functional
[51] = tested on: U-251; experiment: Growth inhibition of human U-251 cells incubated for 48 hrs by sulforhodamine B assay; type: functional
[52] = tested on: SK-MEL-2; experiment: Growth inhibition of human SK-MEL-2 cells incubated for 48 hrs by sulforhodamine B assay; type: functional
[53] = tested on: UO-31; experiment: Growth inhibition of human UO-31 cells incubated for 48 hrs by sulforhodamine B assay; type: functional
[54] = tested on: Panel NCI-60 (60 carcinoma cell lines); experiment: Growth inhibition of human Panel NCI-60 (60 carcinoma cell lines) incubated for 48 hrs by sulforhodamine B assay; type: functional
[55] = Therapeutic index, ratio of LC50 for human Panel NCI-60 (60 carcinoma cell lines) to GI50 for human Panel NCI-60 (60 carcinoma cell lines); type: functional
[56] = tested on: BV-2; experiment: Cytotoxicity against mouse BV2 cells incubated for 48 hrs by MTT assay; type: cell-based; details: BV-2, 48 h
[57] = read-out: LC50 (the source's name)

For `O=C1COCCN1c1ccc(NCc2cn(Cc3ccc(F)cc3)c3ccccc23)cc1`, the Activity [1] was “Active”, the Activity [2] was “Active” and the Activity [3] was “Active”. The inhibition of growth at 10 µM [4] was 98%, the inhibition of growth at 10 µM [5] was 100% and the inhibition of growth at 10 µM [6] was 93%. The inhibition of growth at 10 µM [7] was 96%, the inhibition of growth at 10 µM [8] was 87% and the inhibition of growth at 10 µM [9] was 100%. The inhibition of growth at 10 µM [10] was 100%, the inhibition of growth at 10 µM [11] was 100% and the inhibition of growth at 10 µM [12] was 100%. For the same compound, the inhibition of growth at 10 µM [13] was 100%, the inhibition of growth at 10 µM [14] was 100% and the inhibition of growth at 10 µM [15] was 100%. It also gave an inhibition of growth at 10 µM [16] of 100%, an inhibition of growth at 10 µM [17] of 100% and an inhibition of growth at 10 µM [18] of 99%. The inhibition of growth at 10 µM [19] was 100%, the inhibition of growth at 10 µM [20] was 72% and the inhibition of growth at 10 µM [21] was 89%. It also gave an inhibition of growth at 10 µM [22] of 68%, an inhibition of growth at 10 µM [23] of 77% and an inhibition of growth at 10 µM [24] of 96%. The inhibition of growth at 10 µM [25] was 90%, the inhibition of growth at 10 µM [26] was 80% and the inhibition of growth at 10 µM [27] was 100%. The inhibition of growth at 10 µM [28] was 96%, the GI50 [29] was 0.54 µM and the GI50 [30] was 0.04 µM. The CC50 [30, 57] was 1.1 µM, the GI50 [31] was 0.12 µM and the GI50 [32] was 0.05 µM. The CC50 [32, 57] was over 100 µM, the GI50 [33] was 0.48 µM and the GI50 [34] was 0.2 µM. It also gave a GI50 [35] of 0.04 µM, a CC50 [35, 57] of 0.8 µM and a GI50 [36] of 0.03 µM. The CC50 [36, 57] was over 100 µM, the GI50 [37] was 0.28 µM and the GI50 [38] was 0.15 µM. The GI50 [39] was 0.04 µM, the CC50 [39, 57] was over 100 µM and the GI50 [40] was 0.02 µM. The CC50 [40, 57] was over 100 µM, the GI50 [41] was 0.04 µM and the CC50 [41, 57] was over 100 µM. It also gave a GI50 [42] of 0.11 µM, a GI50 [43] of 0.07 µM and a GI50 [44] of 0.02 µM. The CC50 [44, 57] was 0.5 µM, the GI50 [45] was 3.8 µM and the GI50 [46] was 1.51 µM. It also gave a GI50 [47] of 4.5 µM, a GI50 [48] of 1.47 µM and a GI50 [49] of 1.54 µM. The GI50 [50] was 1.09 µM, the GI50 [51] was 1.41 µM and the GI50 [52] was 1.2 µM. It also gave a GI50 [53] of 2.75 µM, a GI50 [54] of 1.31 µM and a TGI [54] of 15.1 µM. It also gave a CC50 [54, 57] of 70.8 µM, a TI [55] of 54 and an IC50 [56] of over 10 µM.

Source: ChEMBL document CHEMBL4814018, “Rationally designed TNF-α inhibitors: Identification of promising cytotoxic agents” (Bioorg Med Chem Lett, 2021)
